{
  "source": "patent US10350147B2",
  "about": "“Enamel products and methods of use” (The Research Foundation for The State University of New York, priority 2014, dated 2019)",
  "key": {"[1]": {"tested_on": "oral epithelial keratinocytes of the cell line IMOK", "experiment": "Immunocytochemistry of marker expression in treated IMOK oral epithelial keratinocytes", "type": "cell-based, mouse", "method": "In the studies described below, the ameloblast-like cells originated from oral epithelial keratinocytes. We employed the cell line IMOK, an immortalized oral keratinocyte cell line of mouse origin, which was a gift from Dr. Garrett-Sinha (SUNY-Buffalo; Parikh et al., Arc. Oral Biol. 53:1091-1100, 2008).\nTo thaw frozen IMOK cells, we removed a cryovial containing 10^6 frozen cells from liquid nitrogen storage, immediately placed it into a 37° C. water bath, and gently swirled the vial. When the cells were thawed, we transferred the vial into a laminar flow hood, and added 10 ml of pre-warmed serum free CnT-02 growth medium (CELLNTEC; FPS 1:1000 added to the medium). We centrifuged the cell suspension (˜1000 rpm for 4 minutes) then checked the vial visually for the presence of a complete pellet. The supernatant was aseptically decanted without disturbing the cell pellet, which we gently resuspended in 7 ml of CnT-02 medium. We transferred the resuspended cells into a T25 flask and incubated it at 37° C. with a humidified atmosphere of 5% CO2 The medium was changed every other day, and when the cells became 90% confluent, we split them 1:5 and plated them in a 12-well plate as follows. After discarding the culture medium from the flask, we washed the cells with PBS then added 2 mL of a pre-warmed dissociation reagent (TrypLE; GIBCO), gently shaking the flask to completely cover the cell layer. We transferred the flask to the incubator (37° C., 5% CO2) for 20 minutes, checking under a microscope every 5 minutes for dissociation of the cells. When ≥90% of the cells detached, we added 8 ml of pre-warmed CnT-02 growth medium (CELLNTEC), dispersing it with a pipette over the cell layer surface several times. The cell suspension was transferred to a 50 ml conical tubed and centrifuged (1000 rpm for 4 minutes). We resuspended the cell pellet in 5 ml of pre-warmed serum free CnT-02 growth medium (CELLNTEC) and split the cells in 1:5 ratios. We diluted the cell suspension plate and pipetted the appropriate volume into new 12-well plates, returning the cells to the incubator (37° C., 5% CO2).\nWe added the vehicle (4 mM HCl+1 mg/mL BSA) to the control side and TGFβ1 (5 ng/mL) to the experimental side and mixed gently. We changed the medium every other day for 10 days. To fix the cells, we aspirated the medium, washed the cells with PBS then fixed them with 100% methanol for 20 minutes. Following fixation, we washed the fixed cells with PBS (×3) and stored them at 4° C.\nImmunocytochemistry General Protocol: (1) wash sample slide in 0.15 M PBS (pH 7.2; 4×5 minutes); (2) incubate in 4% Normal Goat Serum (NGS) for 20 minutes (2 ml of 0.15 M PBS+80 μL NGS); (3) incubate with the primary antibody solution (details below; 90 minutes); (4) wash with […] (3 times×10 minutes); (5) block with 4% NGS in 0.15 M PBS (20 minutes); (6) incubate with the secondary antibody (Biotin-SP-conjugated goat anti-rabbit IgG; 60 minutes); (7) wash with 0.15 M PBS (3 times×10 minutes); (8) prepare and incubate in ABC solution (details below; 60 minutes (5 mL of 0.15 M PBS+ABC solution 600 μL); (9) wash with 0.1 M AI buffer (175 mM sodium acetate and 10 mM imidazole, pH 7.2) for 3 times×10 minutes [14.35 g sodium acetate, 0.68 g imidazole in 1000 mL H2O]; (10) carry out DAB reaction for 5-20 minutes, checking often; and (11) wash for 15 minutes in 0.05 M PBS with 0.04% TritonX-100 to stop the reaction.\nThe primary antibody solution contains 0.15 M PBS with 0.5% Triton X-100; 4% NGS in [0.15 M PBS with 0.5% TritonX-100; and the primary antibody at a 1:500 dilution (2 mL PBS+0.04% Tx 100+80 μL NGS+4 μL primary antibody). The secondary antibody solution contains 0.15 M PBS with 0.5% Triton X-100 and the secondary antibody at a 1:2500 dilution (Goat anti Rabbit IgG) [2 ml PBS+0.04% Tx 100+0.8 uL GαR]. To prepare the ABC (Avidin Biotin Complex) solution, add 1 drop of A, 1 drop of B, to 500 μL of 0.15 M PBS in an Eppendrof tube. […]"}, "developing tooth buds": {"tested_on": "developing tooth buds", "settings": "serotonin added to organotypic cultures; reversed with antagonists; cited from earlier work"}, "[2]": {"settings": "IMOK cells before and after TGFβ1 treatment"}, "[3]": {"settings": "IMOK cells, TGFβ1 5 ng/ml, 10 days, immunocytochemistry"}},
  "note": "Entries after “also recorded” stand apart in the source; their conditions may differ.",
  "data": [
    {"compound": "NCCc1c[nH]c2ccc(O)cc12", "note": "[serotonin, reference compound]", "values": [
      {"measurement": "amelogenin induction at 10 μM serotonin", "setting": "[1]; 10 μM serotonin for 10 days", "value": "induction of amelogenin"},
      {"measurement": "amelogenin expression after serotonin treatment", "setting": "[1]; IMOK cells pre-treated with TGFβ1, then further treated with serotonin", "value": "induction of amelogenin expression; also recorded: express amelogenin"},
      {"measurement": "effect on tooth development", "setting": "developing tooth buds", "value": "accelerated tooth development"}
    ]},
    {"compound": "TGFβ1: recombinant human transforming growth factor β1 (R&D system) used as dedifferentiation agent", "values": [
      {"measurement": "Oct4 expression", "setting": "[1]; [2]", "value": "acquire the expression of Oct4"},
      {"measurement": "collagen1 expression", "setting": "[1]; [2]", "value": "lose the expression of collagen1"},
      {"measurement": "amelogenin expression after TGFβ1 treatment alone", "setting": "[1]; IMOK cells before and after TGFβ1 treatment, no serotonin", "value": "do not express amelogenin"},
      {"measurement": "E-cadherin expression", "setting": "[1]; [3]", "value": "lost and reduction in E-cadherin expression and loss of E-cadherin expression"},
      {"measurement": "N-cadherin expression", "setting": "[1]; [3]", "value": "gained; also recorded: increase in N-cadherin expression; also recorded: induced"},
      {"measurement": "cell morphology after treatment", "setting": "[1]; IMOK cells, TGFβ1 treatment versus confluent control", "value": "cells enlarge in size, separate and spread out"}
    ]}
  ]
}
